# In US20190262266A1, “FORMULATIONS” (OXY SOLUTIONS AS, priority 2016, published 2019):
# “Also recorded” adds a separate entry of the source. Read-outs that look alike come from different tables or passages of the source.
# Legend:
# human skin fibroblasts [1] = test system: human skin fibroblasts
# Protocol: (§1) Oxygenated medium was prepared using powder cell medium, diluted with Oxy Water prepared according to Example 5. The mixing ratio depended on the desired concentration of dissolved oxygen in the final cell medium. DMEM or DMEM medium without phenol red was used (Sigma Aldrich). The medium was supplied with additives and FBS. The phenol red free cell medium was used for the ROS experiment to avoid disturbance of the fluorescent readings.
# human skin fibroblasts [2] = assay: Reactive oxygen species (ROS) production in human skin fibroblasts (DCFDA); details: 30 min; for ROS, relative fluorescence (×10^3): 5% FBS; for ROS production compared to control: DO 21-35 mg/L, 5% FBS (5% or 10% FBS), control 8.6 mg/L
# Protocol: as §1
# HSFs were seeded at a density of 2.5×10^4 cells/0.32 cm^2 and were grown to confluence overnight. The cells were stained with 20 uM DCFDA solution (2′,7′-dichlorofluorescin diacetate) (DCFDA Cellular ROS Detection Assay Kit, Abcam, Cambridge, UK) and incubated for 45 min at 37° C. protected from light exposure. Control cell medium (5% FBS, dissolved oxygen: 8.6 mg/L), oxygenated cell medium (5% FBS, dissolved oxygen: 21.6, 26.5, 34.9 mg/L) and positive control (500 μM H2O2, 5% FBS, dissolved oxygen: 8.6 mg/L) were added. The cells were incubated at room temperature. The fluorescence was read with an FLx800 plate reader (BioTek, Winooski, USA) with excitation wavelength at 485 nm and emission wavelength 520 nm, 30 min after adding the treatments. The values were corrected for blank readings and presented as relative fluorescence (×10^3). The experiments were repeated using 10% FBS.
# human skin fibroblasts [3] = details: DO up to 50 mg/L, DMEM w/1% FBS, control 11 mg/L; for cell viability / number of dead cells compared to control: 4 days; for proliferation compared to control: up to 4 days
# Protocol: as §1
# HSFs were seeded at a density of 5×10^4 cells/25 cm^2 and left overnight. The cells were treated with control cell medium (1% FBS, dissolved oxygen: 11 mg/L), oxygenated cell medium (1% FBS, dissolved oxygen: 23, 31, 41, 50 mg/L), or 10% FBS, dissolved oxygen: 10 mg/L. After stimulation, the cells were left at room temperature for 30 min, followed by incubation at 37° C. The treatment was repeated every 24 hours up to 4 days. On day 2, 3 and 4 the cells were harvested; the cell suspension was mixed with trypan blue and live cells were manually counted using a hemocytometer and dead cells were counted using a TC20 Automated cell counter (BioRad, USA). 1% Triton X was used as a positive control for cell death.
smiles,measurement,setting,value
O=O [dissolved oxygen],ATP levels,"human skin fibroblasts [1]; 33 mg/L DO, DMEM w/10% FBS, 4 h, re-stimulated at 1, 2 and 3 hours",113.1 nm ATP/10^5 cells
same,levels of ATP,"human skin fibroblasts [1]; 33 mg/L dissolved oxygen, four hourly stimulations",113.1±10.1 nM ATP/10^5 live cells
same,"ROS, relative fluorescence (×10^3)",human skin fibroblasts [2]; 21.6 mg/L dissolved oxygen,9.3±3.4
same,"ROS, relative fluorescence (×10^3)",human skin fibroblasts [2]; 26.5 mg/L dissolved oxygen,15.2±4.5
same,"ROS, relative fluorescence (×10^3)",human skin fibroblasts [2]; 34.9 mg/L dissolved oxygen,8.9±2.9
same,ROS production compared to control,human skin fibroblasts [2],did not significantly change; also recorded: no significant increase
same,ROS production compared to control,human skin fibroblasts [2]; listed as DO,no significant differences
same,cell viability / number of dead cells compared to control,human skin fibroblasts [3],nor did it change the level of cell viability
same,cell viability / number of dead cells compared to control,human skin fibroblasts [3]; listed as DO,did not significantly alter the number of dead cells
same,proliferation compared to control,human skin fibroblasts [3],did not change cell proliferation
same,proliferation compared to control,human skin fibroblasts [3]; listed as DO,did not significantly alter the proliferation rate
